From patent US4863904A, “Dipeptides as renin inhibitors” (priority 1984, dated 1989)

Experiments:
[1] = target: T1, human renin (Homo sapiens, UniProt P00797); assay: Human renin-sheep renin substrate reaction system in vitro; type: biochemical; conditions: purified human renin, semipurified sheep renin substrate, pH 7.4, 37° C., 15 minutes; angiotensin I by radioimmunoassay; read-out: IC50 (molar concentration)
T1 sequence (P00797 67-406): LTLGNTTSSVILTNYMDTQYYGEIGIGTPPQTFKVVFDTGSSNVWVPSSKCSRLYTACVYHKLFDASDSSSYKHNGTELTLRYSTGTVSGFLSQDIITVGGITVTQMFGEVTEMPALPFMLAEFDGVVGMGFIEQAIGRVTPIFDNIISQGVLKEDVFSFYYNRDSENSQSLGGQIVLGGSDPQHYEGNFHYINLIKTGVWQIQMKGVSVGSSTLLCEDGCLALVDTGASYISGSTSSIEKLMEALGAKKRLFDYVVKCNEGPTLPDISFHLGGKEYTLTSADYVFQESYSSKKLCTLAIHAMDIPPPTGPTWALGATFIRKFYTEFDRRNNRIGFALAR
Protocol: The mixture was incubated for 15 minutes on a water bath at 37° C., and the reaction mixture was allowed to stand for 5 minutes on a water bath at 100° C. to stop the reaction. After cooling, 200 μl of the solution was taken up and the amount of angiotensin I produced by the addition of renin was determined by radioimmunoassay. The inhibitory effect was calculated by the following equation. [formula]
As a control, the same procedure as above was carried out by using 50 μl of dimethyl sulfoxide alone in place of the 50 μl of dimethyl sulfoxide solution containing a dipeptide of the present invention.

[2] = tested on: common marmosets; assay: Depressive effect in marmosets (blood pressure of conscious marmosets in a high renin state); type: in vivo; conditions: 100 mg/kg orally, conscious furosemide-treated common marmoset
Protocol: The experiment was carried out by using common marmosets as described in K. G. Hofbauer et al., Clinical and Experimental Hypertension-Theory and Practice, Vol A5, Nos 7 & 8 (1983), pages 1237-1247.
Furosemide was orally administered three times to common marmosets at 15 mg per kilogram per day every other day to create a high renin state. The operation was performed according to the method used by K. G. Hofbauer et al., and blood pressure of conscious marmosets was measured 2 days after the last administration of furosemide.
Male common marmosets weighing 350 g and 280 g were lightly anesthetized by Ketamine hydrochloride (Ketalar®, 10 to 20 mg/kg i.m.), and their femoral artery and vein was exposed. Catheters being filled with a heparin solution was subcutaneously inserted into the femoral vein and the femoral artery from the tail. After suturing of the opened part, the marmosets were placed on a heated mat. After complete recovery from the anesthesia, a dipeptide of the present invention (100 mg/kg) was orally administered through a soft catheter.
The arterial catheter was connected to a pressure transducer and blood pressure was recorded on the polygraph.

| SMILES | IC50 [1] [µM] | other results |
| --- | --- | --- |
| CC(C)C[C@@H](C=O)NC(=O)[C@H](Cc1c[nH]cn1)NC(=O)C(CCCC(=O)c1ccccc1)Cc1cccc2ccccc12 (mixture of isomers) [N-[(±)-5-Benzoyl-2-(1-naphthylmethyl)valeryl]-L-histidyl-L-leucinal] | 0.19 | – |
| CC(C)C[C@@H](CO)NC(=O)[C@H](Cc1c[nH]cn1)NC(=O)C(CC(=O)NCCc1ccccc1)Cc1cccc2ccccc12 (single isomer, unassigned) [N-[2-(1-Naphthylmethyl)-3-(phenethylcarbamoyl)propionyl]-L-histidyl-L-leucinol] | 25 | – |
| CC(C)C[C@@H](CO)NC(=O)[C@H](Cc1c[nH]cn1)NC(=O)C(CC(=O)Nc1ccccc1)Cc1cccc2ccccc12 (single isomer, unassigned) [N-[2-(1-Naphthylmethyl)-3-(phenylcarbamoyl)propionyl]-L-histidyl-L-leucinol(isomer B)] | 18 | – |
| CC(C)C[C@@H](C=O)NC(=O)[C@H](Cc1c[nH]cn1)NC(=O)C(CC(=O)NCCc1ccccc1)Cc1cccc2ccccc12 (single isomer, unassigned) [N-[2-(1-naphthylmethyl)-3-(phenethylcarbamoyl)propionyl]-L-histidyl-L-leucinal (isomer A)] | 0.041 | – |
| CC(C)C[C@@H](CO)NC(=O)[C@H](Cc1c[nH]cn1)NC(=O)C(CC(=O)NCCc1ccccc1)Cc1cccc2ccccc12 (single isomer, unassigned) [N-[2-(1-naphthylmethyl)-3-(phenethylcarbamoyl)propionyl]-L-histidyl-L-leucinol (isomer A)] | 7.4 | – |
| CC(C)C[C@@H](C=O)NC(=O)[C@H](Cc1c[nH]cn1)NC(=O)C(CC(=O)NCc1ccccc1)Cc1cccc2ccccc12 (single isomer, unassigned) [N-[3-(Benzylcarbamoyl)-2-(1-naphthylmethyl)propionyl]-L-histidyl-L-leucinal(isomer B)] | 4.9 | – |
| CC(C)C[C@@H](CO)NC(=O)[C@H](Cc1c[nH]cn1)NC(=O)C(CC(=O)NCc1ccccc1)Cc1cccc2ccccc12 (single isomer, unassigned) [N-[3-(Benzylcarbamoyl)-2-(1-naphthylmethyl)propionyl]-L-histidyl-L-leucinol(isomer A)] | 19 | – |
| CC(C)C[C@@H](CO)NC(=O)[C@H](Cc1c[nH]cn1)NC(=O)C(CC(=O)NCc1ccccc1)Cc1cccc2ccccc12 (single isomer, unassigned) [N-[3-(Benzylcarbamoyl)-2-(1-naphthylmethyl)propionyl]-L-histidyl-L-leucinol(isomer B)] | 27 | – |
| CC(C)C[C@@H](CO)NC(=O)[C@H](Cc1c[nH]cn1)NC(=O)C(CC(=O)NCCc1c[nH]c2ccccc12)Cc1cccc2ccccc12 (single isomer, unassigned) [N-{3-[2-(3-Indolyl)ethylcarbamoyl]-2-(1-naphthylmethyl)propionyl}-L-histidyl-L-leucinol (isomer A)] | 28 | – |
| CC(C)C[C@@H](C=O)NC(=O)[C@H](Cc1c[nH]cn1)NC(=O)C(Cc1ccccc1)Cc1ccccc1 [N-(2-Benzyl-3-phenylpropionyl)-L-histidyl-L-leucinal] | 1.1 | – |
| CC(C)C[C@@H](C=O)NC(=O)[C@H](Cc1c[nH]cn1)NC(=O)C(CC(=O)NCCc1ccccc1)Cc1cccc2ccccc12 (stereo partly drawn) [N-[2-(1-Naphthylmethyl)-3-(phenethylcarbamoyl)propionyl]-L-histidyl-L-leucinal] | – | Blood pressure (mm Hg) ([2]; 60 min. after administration): 98.2 mm Hg; Blood pressure (mm Hg) ([2]; 120 min. after administration): 88.0 mm Hg; Blood pressure (mm Hg) ([2]; 180 min. after administration): 87.6 mm Hg; Blood pressure (mm Hg) ([2]; 300 min. after administration): 96.5 mm Hg; Blood pressure (mm Hg) ([2]; 420 min. after administration): 101.2 mm Hg |
| CC(C)C[C@@H](CO)NC(=O)[C@H](Cc1c[nH]cn1)NC(=O)C(CC(=O)NCCc1ccccc1)Cc1cccc2ccccc12 (stereo partly drawn) [N-[2-(1-Naphthylmethyl)-3-(phenethylcarbamoyl)propionyl]-L-histidyl-L-leucinol] | – | Blood pressure (mm Hg) ([2]; 60 min. after administration): 97.7 mm Hg; Blood pressure (mm Hg) ([2]; 120 min. after administration): 89.5 mm Hg; Blood pressure (mm Hg) ([2]; 180 min. after administration): 95.3 mm Hg; Blood pressure (mm Hg) ([2]; 300 min. after administration): 97.4 mm Hg; Blood pressure (mm Hg) ([2]; 420 min. after administration): 99.0 mm Hg |
| CC(C)C[C@@H](C=O)NC(=O)[C@H](Cc1c[nH]cn1)NC(=O)C(CCCCc1ccc2ccccc2c1)Cc1ccccc1 (stereo partly drawn) [N-[2-Benzyl-6-(2-naphthyl)hexanoyl]-L-histidyl-L-leucinal] | 3.4 | – |
| CC(C)C[C@@H](C=O)NC(=O)[C@H](Cc1c[nH]cn1)NC(=O)C(CCCCCc1ccccc1)Cc1ccccc1 (stereo partly drawn) [N-[2-Benzyl-7-phenylheptanoyl)-L-histidyl-L-leucinal] | 2 | – |
| CC(C)C[C@@H](C=O)NC(=O)[C@H](Cc1c[nH]cn1)NC(=O)C(CCc1ccccc1)CCc1ccccc1 [N-[4-Phenyl-2-(2-phenylethyl)butanoyl]-L-histidyl-L-leucinal] | 3.5 | – |
| CC(C)C[C@@H](C=O)NC(=O)[C@H](Cc1c[nH]cn1)NC(=O)C(CCCCc1ccccc1)Cc1cccc2ccccc12 (stereo partly drawn) [N-[(-)-2-(1-Naphthylmethyl)-6-phenylhexanoyl]-L-histidyl-L-leucinal] | 0.46 | – |

Continued by falling IC50 [1], values first:

| IC50 [1] [µM] | SMILES | other results |
| --- | --- | --- |
| 91 | O=C(CC(Cc1cccc2ccccc12)C(=O)N[C@@H](Cc1c[nH]cn1)C(=O)N[C@H](CO)Cc1ccccc1)NCCc1ccccc1 (single isomer, unassigned) [N-[2-(1-naphthylmethyl)-3-(phenethylcarbamoyl)propionyl]-L-histidyl-L-phenylalaninol (isomer A)] | – |
| 69 | CC(C)C[C@@H](CO)NC(=O)[C@H](Cc1c[nH]cn1)NC(=O)C(=Cc1cccc2ccccc12)CC(=O)NCCc1ccccc1 [N-[2-(1-Naphthylmethylene)-3-(phenethylcarbamoyl)propionyl]-L-histidyl-L-leucinol] | – |
| 65 | CC(C)C[C@@H](CO)NC(=O)[C@H](Cc1c[nH]cn1)NC(=O)C(CC(=O)Nc1ccccc1)Cc1cccc2ccccc12 (single isomer, unassigned) [N-[2-(1-Naphthylmethyl)-3-(phenylcarbamoyl)propionyl]-L-histidyl-L-leucinol(isomer A)] | – |
| 47 | CC(C)C[C@@H](CO)NC(=O)[C@H](Cc1c[nH]cn1)NC(=O)C(CNCCCc1ccccc1)Cc1cccc2ccccc12 (single isomer, unassigned) [N-[2-(1-naphthylmethyl)-3-(3-phenylpropylamino)propionyl]-L-histidyl-L-leucinol (isomer A)] | – |
| 6.6 | CC(C)C[C@@H](CO)NC(=O)[C@H](Cc1c[nH]cn1)NC(=O)C(CC(=O)NCCc1c[nH]c2ccccc12)Cc1cccc2ccccc12 (single isomer, unassigned) [N-{3-[2-(3-Indolyl)ethylcarbamoyl]-2-(1-naphthylmethyl)propionyl}-L-histidyl-L-leucinol (isomer B)] | – |
| 3.8 | CC(C)C[C@@H](C=O)NC(=O)[C@H](Cc1c[nH]cn1)NC(=O)C(=Cc1ccccc1)CC(=O)NCc1cccc2ccccc12 [N-[2-Benzylidene-3-(1-naphthylmethylcarbamoyl)propionyl]-L-histidyl-L-leucinal] | – |
| 0.14 | CC(C)C[C@@H](C=O)NC(=O)[C@H](Cc1c[nH]cn1)NC(=O)C(CCCCc1ccccc1)Cc1cccc2ccccc12 (stereo partly drawn) [N-[2-(1-Naphthylmethyl)-6-phenylhexanoyl]-L-histidyl-L-leucinal] | – |
| 0.088 | CC(C)C[C@@H](C=O)NC(=O)[C@H](Cc1c[nH]cn1)NC(=O)C(CCCCc1ccccc1)Cc1cccc2ccccc12 (stereo partly drawn) [N-[(+)-2-(1-Naphthylmethyl)-6-phenylhexanoyl]-L-histidyl-L-leucinal] | – |
| 0.07 | CC(C)C[C@@H](C=O)NC(=O)[C@H](Cc1c[nH]cn1)NC(=O)C(CC(=O)NCc1ccccc1)Cc1cccc2ccccc12 (single isomer, unassigned) [N-[3-(Benzylcarbamoyl)-2-(1-naphthylmethyl)propionyl]-L-histidyl-L-leucinal(isomer A)] | – |
